# Results from publication PMC8844826 (iScience, 2022).
# Peptide text beside a SMILES is read from it.
# Key:
# full length PSD-95 [1] = target: T1, full length PSD-95 (Homo sapiens, UniProt P78352); experiment: competitive fluorescence polarization (FP) binding to full length PSD-95, tracer AB-143; settings: Ki,app
# T1 construct: FL-PSD-95 (32M3C-PSD-95 FL 1-724); made in house; host or cells: E. coli BL21-DE3-pLysS
# PSD-95 = experiment: confocal microscopy of LLPS droplets of fluorescently labeled PSD-95; type: biochemical, human; settings: peptide 36 μM, Alexa 633-PSD-95 30 nM labeled/3 μM unlabeled, validated by SDS-PAGE sedimentation
# Protocol: (§1) Confocal microscopy was done using a Zeiss LSM780 using a 63x NA 1.4 plan apochromat oil objective using Argon 488 nm 25 mW, 543 nm HeNe 1.2 mW and 633 nm HeNe 5mW lasers using a detection wavelength of 490-538 nm for the 488 channel, 556-627 nm for the 543 channel, 636-758 for the 633 channel. Images were acquired using averaging of four line scans and 12-bit. The LLPS droplets were prepared in the desired concentration in PBS-TCEP at desired pH, mostly pH 7.4 unless stated otherwise, and added to an untreated lab tec (155411PK, Nunc, ThermoFischer) and imaged after being allowed to settle for 15 min at 25°C. For samples containing fluorescent protein or peptide the content of fluorescent protein or peptide was kept at 1-10% of indicated total protein or peptide concentration.
# [2] = tested on: ePSD (PSD-95, Homer3, Shank3, GKAP, SynGAP); experiment: SDS-PAGE sedimentation assay with ePSD; type: biochemical; settings: n = 3; for LLPS induction in the PSD-95 containing ePSD: peptide 10 μM and 100 μM; for promotion of LLPS of ePSD: SDS-PAGE sedimentation and quantification, ePSD incubated with indicated peptides
# Protocol: (§2) Proteins were all mixed in the desired concentration in PBS-TCEP and equilibrated for 10 min before centrifugation at 20,000 g for 15 min at 25°C using a temperature-controlled table top centrifuge. Following centrifugation, the supernatant was collected and the pellet was re-suspended in an equal amount of PBS-TCEP, usually 50 μL. To ensure proper suspension of LLPS samples were vortexed before addition of SDS buffer boiling at 95°C for 5 min. Supernatant and pellet fractions were run on any kD Mini-PROTEAN TGX Precast Protein Gels (10 or 15 wells, BioRad 4569036 or 4569033). Gels were imaged using a Li-COR Odyssey gel scanner and band intensities were analyzed using ImageJ. Significance was evaluated using one-way ANOVA with Dunnett post-test, one-way ANOVA with Tukey post-test or a two-way ANOVA with Dunnett post-test.
# full length PSD-95 [3] = target: T1, full length PSD-95; experiment: SDS-PAGE sedimentation assay with PSD-95; type: biochemical; settings: SDS-PAGE sedimentation and quantification; n = 3
# Protocol: as §2
# ePSD = experiment: confocal microscopy of ePSD LLPS droplets; type: biochemical
# Protocol: as §1
# 15N-PDZ1-2 of PSD-95 = experiment: 1H-15N-HSQC NMR chemical shift perturbation; type: binding; settings: 512 μM StgA222-R236/128 μM 15N-PDZ1-2; 50 mM Tris pH 8, 200 mM NaCl, 1 mM TCEP, 25°C
# Protocol: All NMR spectra were recorded on 600 MHz or 750 MHz Bruker Avance III HD spectrometers equipped with QCI or TCI cryo-probes at 25°C in 50 mM Tris pH 8, 200 mM NaCl, 1 mM TCEP, 10% D2O and 250 μM DSS. Spectra were processed with NMRPipe ([Delaglio et al., 1995]) or qMDD ([Kazimierczuk and Orekhov, 2011]) if non-uniform sampling was used for the acquisition and analyzed using CCPNMR analysis ([Skinner et al., 2016]). Amide nitrogen and proton chemical shift assignments were kindly shared by Prof. […] Combined chemical shift perturbations were calculated between the unbound and the bound states using.
# [4] = SDS-PAGE sedimentation, ePSD 3 μM
# T1 sequence (P78352 whole entry): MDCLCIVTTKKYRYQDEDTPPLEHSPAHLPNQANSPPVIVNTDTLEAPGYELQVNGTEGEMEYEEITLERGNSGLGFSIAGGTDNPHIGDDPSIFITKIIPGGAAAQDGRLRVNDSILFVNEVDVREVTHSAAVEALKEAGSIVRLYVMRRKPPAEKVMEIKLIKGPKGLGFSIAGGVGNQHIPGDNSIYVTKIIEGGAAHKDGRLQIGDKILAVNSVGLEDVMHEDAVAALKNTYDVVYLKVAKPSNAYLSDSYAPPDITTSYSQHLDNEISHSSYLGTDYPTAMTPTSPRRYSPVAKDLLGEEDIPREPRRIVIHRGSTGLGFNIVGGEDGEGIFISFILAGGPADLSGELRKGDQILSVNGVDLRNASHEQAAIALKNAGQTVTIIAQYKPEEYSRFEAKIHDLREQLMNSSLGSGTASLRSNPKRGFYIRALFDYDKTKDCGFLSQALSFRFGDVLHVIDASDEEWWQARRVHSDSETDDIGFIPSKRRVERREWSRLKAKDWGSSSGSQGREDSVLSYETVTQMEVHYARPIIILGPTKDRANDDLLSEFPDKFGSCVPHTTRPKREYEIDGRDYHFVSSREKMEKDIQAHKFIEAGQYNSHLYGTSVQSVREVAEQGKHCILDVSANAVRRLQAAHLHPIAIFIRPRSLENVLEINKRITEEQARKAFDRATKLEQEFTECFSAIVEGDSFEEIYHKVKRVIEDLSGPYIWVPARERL
compound,measurement,setting,value
CC[C@H](C)[C@H](NC(=O)[C@H](CO)NC(=O)[C@H](CO)NC(=O)[C@H](CC(C)C)NC(=O)[C@H](CCCCN)NC(=O)[C@H](CCCN=C(N)N)NC(=O)[C@H](CCCN=C(N)N)NC(=O)[C@H](CCCN=C(N)N)NC(=O)[C@H](CCC(N)=O)NC(=O)[C@H](CCCN=C(N)N)NC(=O)[C@H](CCCN=C(N)N)NC(=O)[C@H](CCCCN)NC(=O)[C@H](CCCCN)NC(=O)[C@H](CCCN=C(N)N)NC(=O)CNC(=O)[C@@H](N)Cc1ccc(O)cc1)C(=O)N[C@@H](CCC(=O)O)C(=O)N[C@@H](CO)C(=O)N[C@@H](CC(=O)O)C(=O)N[C@H](C(=O)O)C(C)C [NA-1] (H-YGRKKRRQRRRKLSSIESDV-OH),Ki,"full length PSD-95 [1]; pH 6.4, competitive FP, pH 6.4",7.2 µM
same,Ki,"full length PSD-95 [1]; pH 7.4, competitive FP, pH 7.4",4.5 µM
same,Ki,"full length PSD-95 [1]; pH 8.4, competitive FP, pH 8.4",2.6 µM
same,Ki,"full length PSD-95 [1]; pH 9.4, competitive FP, pH 9.4",4.1 µM
YGRKKRRQRRR-NPEG4-di-IETDV [AVLX-144],pH below which LLPS of PSD-95 is induced,PSD-95,below 6.4 pH
same,LLPS induction in the PSD-95 containing ePSD,[2]; [4],induced LLPS to a minor extent
YGRKKRRQRRR-NPEG4-di-IETAA [AVLX-144-AA],effect on ePSD LLPS formation,"[2]; SDS-PAGE sedimentation, ePSD 3 μM, compared with AVLX-144",largely compromised the ability to drive LLPS
CC[C@H](C)[C@H](NC(=O)[C@H](CO)NC(=O)[C@H](CO)NC(=O)[C@H](CC(C)C)NC(=O)[C@H](CCCCN)NC(=O)[C@H](CCCNC(=N)N)NC(=O)[C@H](CCCNC(=N)N)NC(=O)[C@H](CCCNC(=N)N)NC(=O)[C@H](CCC(N)=O)NC(=O)[C@H](CCCNC(=N)N)NC(=O)[C@H](CCCNC(=N)N)NC(=O)[C@H](CCCCN)NC(=O)[C@H](CCCCN)NC(=O)[C@H](CCCNC(=N)N)NC(=O)CNC(=O)[C@@H](N)Cc1ccc(O)cc1)C(=O)N[C@@H](CCC(=O)O)C(=O)N[C@@H](CO)C(=O)N[C@@H](CC(=O)O)C(=O)N[C@H](C(=O)O)C(C)C [NA-1] (H-YGRKKRRQRRRKLSSIESDV-OH; N-terminus and C-terminus assumed),LLPS induction for PSD-95 alone by known inhibitors,full length PSD-95 [3],able
same,pH below which LLPS of PSD-95 is induced,PSD-95,below 7.4 pH
same,promotion of LLPS of ePSD,[2],able to promote LLPS
same,LLPS induction in the PSD-95 containing ePSD,[2]; [4],could induce LLPS
same,LLPS once complexed with the ePSD,ePSD,induces LLPS
YGRKKRRQRRR [TAT11],promotion of LLPS of ePSD,[2],able to promote LLPS
same,LLPS induction of the ePSD,"[2]; SDS-PAGE sedimentation, peptide 10 μM, ePSD 3 μM",induced LLPS
same,chemical shift perturbations in 1H-15N-HSQC,15N-PDZ1-2 of PSD-95,did not result in any chemical shift perturbations
